Data: patent publication US9643968B2, “Fused acridine derivative and pharmaceutical composition, preparation method and use thereof” (Peking University, priority 2014, dated 2017)

Key:
[1] = Body weight in U87MG tumor-bearing mice; format: in vivo, BALB/c nude mice; settings: oral qd × 5/w
Procedure: (§1) Animals: Female 6-8 weeks BALB/c nude mice weighed 16 to 18 g. They were raised at SPF-level animal room with a 12 h light-dark cycle; drinking and eating were provided ad libitum.
(§2) Under aseptic conditions, U87MG cells in the logarithmic phase were digested and its density was adjusted. U87MG cells were inoculated hypodermically in BALB/c nude mice, 0.1 mL for each mouse. The diameter of the transplantation was measured with a Vernier caliper. After their tumor size was about 100-200 mm^3, 36 mice were randomly divided into 5 groups according to the tumor size. The mice of each group was orally administered the dose respectively according to the above-mentioned schedule, and the mice of the vehicle group were given same dose of saline. The first day of dosing named for D1. The long diameter and short diameter of the tumor size of each mouse were measured twice a week, and the body weights were recorded at the same time.
(§3) Indicators for antitumor efficacy evaluation including: relative tumor inhibition rate, body weight, general state of the mice and related toxicity index. Curves of tumor growth and body weight change of every group were plotted at the end of the experiment.

[2] = test system: HCT116 (human colon cancer cell); assay: MTT in vitro cytotoxicity, HCT116; format: cell-based; settings: HCT-116, 72 hr incubation
Procedure: (§4) Materials and methods: MTT (3-[4,5-dimethylthiazol-2-yl]-diphenyl tetrazolium bromide) method was employed to determine the antiproliferative activity of all the compounds of the Examples and Contrasting Examples in vitro against selected cell lines, including HCT116 (human colon cancer cell), PC-3 (human prostate cancer), HepG2 (human hepatocellular carcinoma), SK-OV-3 (human ovarian adenocarcinoma), MCF-7 (human breast cancer), U87MG (human glioblastoma cell) cell lines.
(§5) Procedure: Human tumor cells of HCT116, PC-3, HepG2, SK-OV-3, MCF-7, and U87MG were in vitro cultured, and collected until the cells grow to the logarithmic phase. The cells were centrifuged for 5 minutes at 1000 rpm, and supernatant was discarded. Subsequently appropriate culture medium was added to suspend the precipitation, and the concentration of cells was adjusted to 3.5˜5.5×10^4/mL. the suspensions of cells were seeded in 96-well microplate at 100 μL per well, and incubated in incubator (37° C., 5% CO2) for 24 hr. The compound to test was added. For the control group, equivalent concentration of DMSO (final concentration 0.5%) was added. For each group, three copy wells were set. After incubated for 72 hr, 20 μL 5 mg/mL of MTT was added into each well, and placed at 37° C. for 3 hr. 150 μL of DMSO was added into each wells, and vibrated the shaker at 37° C. for 5 mins, then measured the absorbance (OD) value at 492 nm/620 nm. The IC50 values were calculated using Prism 5.0 software.

[3] = test system: HepG2 (human hepatocellular carcinoma); assay: MTT in vitro cytotoxicity, HepG2; format: cell-based; settings: 72 hr incubation
Procedure: as §4, §5

[4] = test system: MCF-7 (human breast cancer); assay: MTT in vitro cytotoxicity, MCF-7; format: cell-based; settings: MCF7, 72 hr incubation
Procedure: as §4, §5

tumor cells (U87MG) = assay: Assay for inhibiting cancer cell clone formation (soft agar); format: cell-based, human; settings: concentration range from 0.020 to 0.090 μM, 10-14 days
Procedure: Materials and methods: The tested tumor cells (U87MG) in the logarithmic phase were digested with 0.25% trypsin then percussed gently to the single cell state, and counted the live cells. The cells density was adjusted to 1×10^6[…] with DMEM containing 20% fetal bovine serum, and then diluted gradiently according to the experiment requirement.
Two concentrations (1.2% and 0.7%) of low melting point agarose fluid were prepared with distilled water respectively. A mixture of 1.2% agarose fluid and 2×DMEM medium (contains 2× antibiotics and 20% calf serum) was prepared in 1:1 ratio, then transferred (3 mL) into 6 cm diameter flat dishes, cooled to solidification to furnish the bottom agar which was stored in a CO2 incubator. The cell suspension (0.2 mL) was added to a mixture of 0.7% agarose and 2×DMEM medium which was prepared in 1:1 ratio in sterile tubes, and thoroughly mixed before injection to the precoated dishes to form the double layer agar. After the upper agar being solidified, the dishes were incubated in 37° C. and 5% CO2 for 10-14 days, each experiment was performed in 3-6 times.
The number of clones was counted under an inverted microscope. The clone formation rate was calculated.

U87MG cells = assay: In vivo antitumor activity test, U87MG subcutaneous xenograft; parameters: species or system BALB/c nude mice; settings: oral qd × 5/w; for tumor inhibition rate (IR): 10 doses, by tumor weight
Procedure: as §1, §2
Indicators were observed, measured, and recorded from the first day of dosing. The tumor size was measured using a Vernier caliper to calculate tumor volume change and the tumor growth. After the tumor-burdened mice were executed and dissected, the tumor tissues were separated, and weighed.
as §3
The calculation formula for tumor volume (TV) is: TV=½×a×b^2, where a and b means long diameter and short diameter of the tumor size respectively.
Tumor inhibition rate IR (%)=(1−TTW/CTW)×100%, TTW: TW of the treatment group; CTW: TW of the control group.
Statistical analysis: Data were analyzed using SPSS 11.0 with Student t-test for comparisons and ANOVA. P-values <0.05 were considered significant.

SMILES: Cn1nnc2c(C(N)=O)ncn2c1=O [TMZ, Temozolomide, reference compound]
- animal weight compared with the vehicle ([1]; 50 mg/kg): significant lower compared with the vehicle

SMILES: CN(C)CCCN1C(=O)c2c3cc(Br)ccc3nc3cccc1c23 [Compound 7b, 9-bromo-2-(3-(dimethylamino)propyl)pyrrolo[2,3,4-kl]acridin-1-(2H)-one]
- IC50 [2]: 2.27 µM
- IC50 [3]: 3.84 µM
- IC50 [4]: 2.15 µM

SMILES: CN(C)CCCN1C(=O)c2c3cc(I)ccc3nc3cccc1c23 [Compound 7d, 2-(3-(dimethylamino)propyl)-9-iodopyrrolo[2,3,4-kl]acridin-1-(2H)-one]
- IC50 [2]: 2.64 µM
- IC50 [3]: 3.78 µM
- IC50 [4]: 2.8 µM

SMILES: CN(C)CCN1C(=O)c2c3cc(Br)ccc3nc3cccc1c23 [Compound 7a, 9-bromo-2-(2-(dimethylamino)ethyl)pyrrolo[2,3,4-kl]acridin-1-(2H)-one]
- IC50 [2]: 1.87 µM
- IC50 [3]: 1.85 µM
- IC50 [4]: 1.97 µM

SMILES: COc1ccc2nc3c(C)ccc4c3c(c2c1)C(=O)N4CCN(C)C.O=C(O)/C=C/C(=O)O [Compound 5c′, 2-(2-(dimethylamino)ethyl)-9-methoxy-5-methylpyrrolo[2,3,4-kl]-acridin-1-(2H)-one fumarate]
- inhibition of glioma cell clone formation (tumor cells (U87MG)): significantly inhibited
- tumor size compared with the vehicle (U87MG cells; high dose group (80 mg/kg)): significantly smaller than the vehicle
- tumor inhibition rate (IR) (U87MG cells; high dose group (80 mg/kg)): 91%
- tumor size compared with the vehicle (U87MG cells; median dose group (40 mg/kg)): significantly smaller than the vehicle
- tumor inhibition rate (IR) (U87MG cells; median dose group (40 mg/kg)): 69%
- animal weight compared with the vehicle ([1]; high dose group (80 mg/kg)): grew slowly compared with the vehicle
- animal weight loss compared with the positive control (TMZ) group ([1]; high dose group (80 mg/kg)): significantly lower than the positive control
- animal weight compared with the vehicle ([1]; median dose group (40 mg/kg)): grew slowly compared with the vehicle
